Measured values taken from patent publication US7671040B2, “Chemotherapeutic antineoplastic treatment” (Laboratoires Goemar S.A., priority 2003, dated 2010).
Where “and” joins values, the source holds several entries; their conditions need not be identical. Identical values can stand only once. Like-named read-outs stand apart in the source and are kept apart here.

Key:
[1] = test system: cells in bone marrow; settings: for Number of cells, bone marrow, average: average of group; for Number of cells, bone marrow, individual mice: single mice
Description: A first group and a second group comprising each 50 mice of the Balb/c type were tested.
On day 0 and then each day after day 0, during 10 days, the total number of cells per ml in bone marrow was determined on several mice of each of both first and second groups.
The number of cells in bone marrow was evaluated as hereafter disclosed. The mice were killed by cervical dislocation, placed on their back on cutting board and soaked with ethanol. A long traverse cut through the skin in the middle of the abdominal area was followed by reflecting the skin from the hindquarters and the hind legs. The legs were separated from the body at the hip joint and the feet were removed. The legs were placed in a Petri dish obtaining RPMI 1640 medium (Sigma). All muscle tissue from the femurs and tibia was removed and the bones were separated (only femurs were used). The epiphyses were cut off on both ends, the bone end was punctured with a 23 G needle and flushed out with 3 ml of warm (22° C.) RPMI 1640 medium. The large debris and cell clumps were removed by layering the cell suspension over 3 ml of heat-inactivated fetal calf serum (FCS; Hyclone, Logan, Utah, USA) for 10 minutes on ice. The cells collected from the top of FCS were washed once by centrifugation at 300×g for 10 minutes at 4° C. and kept in RMPI 1640 medium containing 5% FCS. Five microliters of the cell suspension was mixed with 95 ul of Turk's solution (a mixture of 3 ml concentrated acetic acid, 3 ml of 1% crystal violet in water, Fernandez-Botran and Vetvicka “Methods in Cellular Immunology”, CRC Press, Boca Raton, 1995), and incubated for 5 minutes at room temperature. One drop of this solution has been dropped into a hemocytometer and the cells were counted under an optical microscope.
The result of the counting is expressed in number of cells per femur×10^6.

[2] = test system: cells in peripheral blood; settings: for Number of cells, peripheral blood, average: average of group; for Number of cells, peripheral blood, individual mice: single mice
From the text: The injection was an intraperitoneally injection.
The peripheral blood of the mice of the first and the second groups of mice under experimentation according to a) was used to determine the total number of all cells on day 0 and then on each of the following days until day 10 on several mice selected from each of the first and the second groups.
The number of cells in peripheral blood has been evaluated as hereafter disclosed.

SMILES: O=P1(N(CCCl)CCCl)NCCCO1 (stereo not drawn) [cyclophosphamide]
- Number of cells, bone marrow, average ([1]; day 1): 1.25 per femur × 10^6
- Number of cells, bone marrow, individual mice ([1]; day 1 after i.p. injection): 1 per femur × 10^6 and 1.2 per femur × 10^6 and 1.4 per femur × 10^6 (2×)
- Number of cells, bone marrow, average ([1]; day 2): 1.25 per femur × 10^6
- Number of cells, bone marrow, individual mice ([1]; day 2): 0.8 per femur × 10^6 and 2.0 per femur × 10^6 and 2.4 per femur × 10^6
- Number of cells, bone marrow, average ([1]; day 3): 3.6 per femur × 10^6
- Number of cells, bone marrow, average ([1]; day 4): 2.7 per femur × 10^6
- Number of cells, bone marrow, average ([1]; day 5): 4.7 per femur × 10^6
- Number of cells, bone marrow, individual mice ([1]; day 5): 2.1 per femur × 10^6 and 6.0 per femur × 10^6 and 6.1 per femur × 10^6
- Number of cells, bone marrow, average ([1]; day 6): 6.4 per femur × 10^6
- Number of cells, bone marrow, individual mice ([1]; day 6): 6.5 per femur × 10^6 and 5.7 per femur × 10^6 and 7.0 per femur × 10^6
- Number of cells, bone marrow, average ([1]; day 7): 8.1 per femur × 10^6
- Number of cells, bone marrow, individual mice ([1]; day 7): 9.0 per femur × 10^6 and 8.1 per femur × 10^6 and 7.3 per femur × 10^6
- Number of cells, bone marrow, average ([1]; day 8): 6.3 per femur × 10^6
- Number of cells, bone marrow, individual mice ([1]; day 8): 6.0 per femur × 10^6 and 6.2 per femur × 10^6 and 6.8 per femur × 10^6
- Number of cells, bone marrow, average ([1]; day 9): 8.2 per femur × 10^6
- Number of cells, bone marrow, individual mice ([1]; day 9): 8.0 per femur × 10^6 and 8.5 per femur × 10^6 and 8.2 per femur × 10^6
- Number of cells, bone marrow, average ([1]; day 10): 9.4 per femur × 10^6
- Number of cells, bone marrow, individual mice ([1]; day 10): 7.2 per femur × 10^6 and 10.8 per femur × 10^6 and 10.3 per femur × 10^6
- Number of cells, peripheral blood, average ([2]; day 1): 3.6 per ml × 10^5
- Number of cells, peripheral blood, average ([2]; day 2): 3.6 per ml × 10^5
- Number of cells, peripheral blood, individual mice ([2]; day 2): 6.6 per ml × 10^5 and 6.0 per ml × 10^5 and 6.3 per ml × 10^5
- Number of cells, peripheral blood, average ([2]; day 3): 4.2 per ml × 10^5
- Number of cells, peripheral blood, individual mice ([2]; day 3): 3.8 per ml × 10^5 (2×) and 5.1 per ml × 10^5
- Number of cells, peripheral blood, average ([2]; day 4): 5.1 per ml × 10^5
- Number of cells, peripheral blood, average ([2]; day 5): 7.2 per ml × 10^5
- Number of cells, peripheral blood, individual mice ([2]; day 5): 4.0 per ml × 10^5 and 9.6 per ml × 10^5 and 8.1 per ml × 10^5
- Number of cells, peripheral blood, average ([2]; day 6): 6.5 per ml × 10^5
- Number of cells, peripheral blood, individual mice ([2]; day 6): 7.8 per ml × 10^5 and 5.0 per ml × 10^5 and 6.7 per ml × 10^5
- Number of cells, peripheral blood, average ([2]; day 7): 6.4 per ml × 10^5
- Number of cells, peripheral blood, individual mice ([2]; day 7): 3.8 per ml × 10^5 and 7.3 per ml × 10^5 and 8.1 per ml × 10^5
- Number of cells, peripheral blood, average ([2]; day 8): 7.2 per ml × 10^5
- Number of cells, peripheral blood, individual mice ([2]; day 8): 4.1 per ml × 10^5 and 8.2 per ml × 10^5 and 9.3 per ml × 10^5
- Number of cells, peripheral blood, average ([2]; day 9): 11.2 per ml × 10^5
- Number of cells, peripheral blood, individual mice ([2]; day 9): 8.9 per ml × 10^5 and 11.9 per ml × 10^5 and 12.9 per ml × 10^5
- Number of cells, peripheral blood, average ([2]; day 10): 29.2 per ml × 10^5
- Number of cells, peripheral blood, individual mice ([2]; day 10): 23.8 per ml × 10^5 and 27.8 per ml × 10^5 and 35.9 per ml × 10^5
